Source: patent US20120028917A1, “Use Of N-(4-((3-(2-Amino-4-Pyrimidinyl)-2-Pyridinyl)Oxy)Phenyl)-4-(4-Methyl-2-Thienyl)-1-Phthalazinamine In The Treatment Of Antimitotic Agent Resistant Cancer” (Amgen Inc., priority 2009, published 2012)

How the values were obtained:
HCT15 xenograft = experiment: Xenograft tumor growth inhibition (Example 3); format: in vivo, athymic nude mice; details: HCT15, Colon; oral BID, best of intermittent or continuous dose schedule
Protocol: (§1) To investigate whether AMG 900-induced suppression of aurora kinase activity inhibits cell proliferation, the antiproliferative efficacy of AMG 900 was evaluated in-vivo in multiple human cancer xenograft models, including breast, colon, leukemia, lung, pancreatic, and uterine cancer models, grown in athymic nude mice. Mice were administered AMG 900 orally at 3.75, 7.5, or 15 mg/kg BID for 2 consecutive days per week or 3 mg/kg BID everyday for the duration of the study beginning when tumors were established. The reagents, solutions, equipment, formulation of AMG 900, tumor volume measurements and calculations were generally as described in Example 4 below.
(§2) The effect of AMG 900 was tested on the multidrug resistant cell line MES-SA Dx5 grown in vivo as a tumor xenograft. Mice were administered AMG 900 orally at 15 mg/kg BID for 2 consecutive days per week or 3.0 mg/kg BID everyday for the duration of the study. Dosing was initiated when tumors were established (10 days after tumor implantation).

[1] = test system: NCI-H460-Taxol-r xenograft; experiment: Xenograft tumor growth inhibition (Example 3); format: in vivo, athymic nude mice; details: Lung, oral BID, best of intermittent or continuous dose schedule
Protocol: as §1, §2

SK-MEL-2 = experiment: Antiproliferative assay (ArrayScan VTi); format: cell-based; details: Homo sapiens; SK-MEL-2 (Skin); 24 h treatment, then 48 h without compound
Protocol: Tumor cells were seeded in a Packard View 96-well plate in 100 μL of appropriate complete media at a density of 3000 or 5000 cells/well depending on the cell line growth kinetics (broadly defined as slow vs. fast). All dilutions were performed using Biomek FX workstation. The next day cells were treated with AMG 900 (11-point dose range 0.156 to 0.0003 μM) with a final DMSO concentration of 0.12% in media. After 24 hours, the media containing compound was removed and the cells were washed with complete media. The cells were then incubated in 100 μL of fresh complete media (without compound) for 48 hours. After 48 hours, the cells were fixed by adding 100 μL of fixation buffer to 100 μL of complete media. The cells were incubated at room temperature for 10 minutes. The fixation buffer was aspirated and the cells were then permeabilized in 100 μL wash buffer for 30 minutes at room temperature followed by the addition of 100 μL of DNA stain buffer and incubated at room temperature for 30 minutes in the dark. Next, the cells were washed with 100 μL of wash buffer and stored in 100 μL 1×PBS at 4 degrees Celsius until analysis. Cellular data was attained by scanning the 96-well plates on an ArrayScan VTi imaging system (Cellomics). Quantification of individual cell nuclear area and intensity was performed based on Hoechst 33342 DNA dye fluorescence. A threshold on the nuclear area based on the DMSO-treated control well was set to quantify the number of normal size nuclei from nuclear debris and polyploidy cells. This threshold value was applied to enumerate the number of normal nuclei in six image fields/well using a magnification of 10×. The dose-concentration curves and EC50 values were calculated using a 4-parameter equation.

[2] = test system: multiple human cancer xenograft models; experiment: Xenograft panel, Example 3 (summary); format: in vivo, athymic nude mice; details: all xenograft models tested; oral 3.75, 7.5 or 15 mg/kg BID 2 consecutive days per week or 3 mg/kg BID everyday
Protocol: as §1

[3] = test system: MES-SA-Dx5 doxorubicin resistant; experiment: p-histone H3 fluorescence-based cell imaging assay; parameters: species or system human; details: Homo sapiens
Protocol: (§3) All high-content cell assays were performed on an ArrayScan VTi HCS Reader (Cellomics). Tumor cell lines were treated with AMG 900, AZD1152, MK-0457, or PHA-739358 (concentration range varied based on potency). The cells were prepared for intracellular staining with an anti-p-histone H3 Ser^10 antibody as previously described (1). Detection was performed with an anti-rabbit IgG-alexa-568 antibody and DAPI. The cellular levels of p-histone H3 were analyzed using Target Activation V2 algorithm (Cellomics) to determine the percentage of positive cells. For the imaging assays, the concentration-response curves and corresponding IC50 and EC50 values were calculated using the percentage of cells affected versus the DMSO control.

MES-SA parental = experiment: p-histone H3 fluorescence-based cell imaging assay; parameters: species or system human; details: Homo sapiens, P-gp −
Protocol: as §3

MDA-MB-231 parental = experiment: p-histone H3 fluorescence-based cell imaging assay; parameters: species or system human; details: Homo sapiens, P-gp −
Protocol: as §3

[4] = test system: MDA-MB-231 PTX paclitaxel resistant; experiment: p-histone H3 fluorescence-based cell imaging assay; parameters: species or system human; details: Homo sapiens
Protocol: as §3

NCI-H460 parental = experiment: p-histone H3 fluorescence-based cell imaging assay; parameters: species or system human; details: Homo sapiens, P-gp −
Protocol: as §3

[5] = test system: NCI-H460 PTX paclitaxel resistant; experiment: p-histone H3 fluorescence-based cell imaging assay; parameters: species or system human; details: Homo sapiens
Protocol: as §3

[6] = test system: MDR tumor cell lines expressing either P-gp or BCRP; experiment: p-histone H3 / polyploidy in MDR tumor cell lines (summary); format: cell-based; details: Homo sapiens; all cell lines tested irrespective of P-gp or BCRP status; read-out: IC50 or EC50 values (p-histone H3 inhibition or polyploidy)
Protocol: as §3
(§4) Tumor cells were treated with AMG 900, AZD1152, MK-0457, or PHA-739358 (range concentration varied based on potency) for 24 hours and processed for cell-cycle analysis (DNA staining only) as previously described (1). Cells were analyzed on a LSRII flow cytometer using BD FACS Diva software. The concentration-response curves and corresponding EC50 values were calculated using the percentage of cells with ≧4N DNA content versus the DMSO control.

HCT116 AZD1152-resistant = experiment: ≧4N DNA content assay (FIG. 6-A); format: cell-based; details: Homo sapiens, HCT-116; HCT116 AZD1152-resistant subline; 24 hours; read-out: cellular ≧4N DNA content EC50
Protocol: Tumor cell lines were obtained from the American Type Culture Collection (ATCC) unless otherwise specified. The MDA-MB-231-PTX and NCI-H460-PTX cell lines were established by growing the cells in the presence of increasing concentrations of paclitaxel over a period of 6 months. The HCT116 AZD1152-resistant cell line was established by growing the cells in the presence of AZD1152 at 80 nmol/L.
as §4
HCT116 cell lines were treated with increasing concentrations of AMG 900 or AZD1152 for 24 hours. Flow cytometry was used to assess the accumulation of cells with ≧4N DNA content expressed as a percentage of the DMSO-treated control (POC). The concentration-response curves and calculated EC50 values were determined from two independent experiments (bars, ±SD).

EC50 (SK-MEL-2): 2 nM
EC50 ([3]; MES-SA Dx5*, Uterine, P-gp+, read-out: Cellular EC50): 2 nM
IC50 ([3]; MES-SA-Dx5 doxorubicin resistant, P-gp +): 2 nM
EC50 ([4]; MDA-MB-231-PTX*, Breast, P-gp+, read-out: Cellular EC50): 3 nM
IC50 ([4]; MDA-MB-231 PTX paclitaxel resistant, P-gp +): 3 nM
EC50 ([5]; NCI-H460-PTX*, Lung, P-gp+, read-out: Cellular EC50): 3 nM
IC50 ([5]; NCI-H460 PTX paclitaxel resistant, P-gp +): 3 nM
IC50 [6]: 2 to 3 nM
EC50 (HCT116 AZD1152-resistant): 5 nM
Compound: Cc1csc(-c2nnc(Nc3ccc(Oc4ncccc4-c4ccnc(N)n4)cc3)c3ccccc23)c1 [AMG 900, N-(4-((3-(2-amino-4-pyrimidinyl)-2-pyridinyl)oxy)phenyl)-4-(4-methyl-2-thienyl)-1-phthalazinamine]
% TGI (tumor growth inhibition) (HCT15 xenograft): 51%
% TGI (tumor growth inhibition) [1]: 66%
tumor growth vs vehicle control [2]: significantly inhibited tumor growth
IC50 (MES-SA parental): 3 nM
IC50 (MDA-MB-231 parental): 2 nM
IC50 (NCI-H460 parental): 3 nM
